Assay results taken from the supplement of paper PMC10307832.

Tests used:
Test in all cases: relative viability (nuclei count vs DMSO), 5 days (fraction); higher = more cells survive
EHT 1864 + Crizotinib = compound: C1COCCN1CC2=CC(=O)C(=CO2)OCCCCCSC3=C4C=CC(=CC4=NC=C3)C(F)(F)F [EHT 1864] + C[C@@H](Oc1cc(-c2cnn(C3CCNCC3)c2)cnc1N)c1c(Cl)ccc(F)c1Cl [Crizotinib] (partner 1 µM)
Summary of the method: (§1)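 Values are medians from duplicate plates. Each reflects relative viability, defined as the nuclei count of treated wells over that of vehicle wells. Lung cancer cell lines in 1536-well plates were pin-tool dosed one day after seeding with one drug alone or with a fixed anchor-drug dose plus five library-drug doses (not always all listed) in √10 steps, then fixed, stained and imaged at 4× after 5 days.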

EHT 1864 + Vorinostat = compound: C1COCCN1CC2=CC(=O)C(=CO2)OCCCCCSC3=C4C=CC(=CC4=NC=C3)C(F)(F)F [EHT 1864] + O=C(CCCCCCC(=O)Nc1ccccc1)NO [Vorinostat] (partner 1 µM)
Summary of the method: as §1

EHT 1864 + Pictilisib = compound: C1COCCN1CC2=CC(=O)C(=CO2)OCCCCCSC3=C4C=CC(=CC4=NC=C3)C(F)(F)F [EHT 1864] + CS(=O)(=O)N1CCN(Cc2cc3nc(-c4cccc5[nH]ncc45)nc(N4CCOCC4)c3s2)CC1 [Pictilisib] (partner 1 µM)
Summary of the method: as §1

EHT 1864 + Dasatinib = compound: C1COCCN1CC2=CC(=O)C(=CO2)OCCCCCSC3=C4C=CC(=CC4=NC=C3)C(F)(F)F [EHT 1864] + Cc1nc(Nc2ncc(C(=O)Nc3c(C)cccc3Cl)s2)cc(N2CCN(CCO)CC2)n1 [Dasatinib] (partner 0.075 µM)
Summary of the method: as §1

Cell Line | relative viability (EHT 1864 + Crizotinib; first compound 0.04 µM) | relative viability (EHT 1864 + Crizotinib; first compound 0.1265 µM) | relative viability (EHT 1864 + Crizotinib; first compound 0.4 µM) | relative viability (EHT 1864 + Crizotinib; first compound 1.265 µM) | relative viability (EHT 1864 + Crizotinib; first compound 4 µM) | relative viability (EHT 1864 + Vorinostat; first compound 0.04 µM) | relative viability (EHT 1864 + Vorinostat; first compound 0.1265 µM) | relative viability (EHT 1864 + Vorinostat; first compound 0.4 µM) | relative viability (EHT 1864 + Vorinostat; first compound 1.265 µM) | relative viability (EHT 1864 + Vorinostat; first compound 4 µM) | relative viability (EHT 1864 + Pictilisib; first compound 0.04 µM) | relative viability (EHT 1864 + Pictilisib; first compound 0.1265 µM) | relative viability (EHT 1864 + Pictilisib; first compound 0.4 µM) | relative viability (EHT 1864 + Pictilisib; first compound 1.265 µM) | relative viability (EHT 1864 + Pictilisib; first compound 4 µM) | relative viability (EHT 1864 + Dasatinib; first compound 0.04 µM) | relative viability (EHT 1864 + Dasatinib; first compound 0.1265 µM) | relative viability (EHT 1864 + Dasatinib; first compound 0.4 µM) | relative viability (EHT 1864 + Dasatinib; first compound 1.265 µM) | relative viability (EHT 1864 + Dasatinib; first compound 4 µM)
PC-3 [JPC-3] | 0.973 | 0.979 | 0.925 | 0.909 | 1.01 | 0.886 | 0.718 | 0.83 | 0.77 | 0.801 | 0.816 | 0.577 | 0.853 | 0.928 | 0.657 | 1.05 | 0.901 | 0.996 | 1.02 | 0.896
PC-14 | 0.966 | 0.962 | 0.832 | 0.865 | 0.899 | 0.791 | 0.572 | 0.686 | 0.743 | 0.751 | 0.664 | 0.59 | 0.686 | 0.637 | 0.582 | 0.257 | 0.276 | 0.279 | 0.26 | 0.195
RERF-LC-KJ | 0.794 | 0.816 | 0.769 | 0.784 | 0.787 | 0.676 | 0.585 | 0.69 | 0.735 | 0.718 | 0.617 | 0.521 | 0.459 | 0.491 | 0.479 | 0.825 | 0.793 | 0.795 | 0.772 | 0.682
SK-LU-1 | 0.982 | 0.865 | 0.927 | 0.911 | 0.737 | 0.81 | 0.726 | 0.725 | 0.707 | 0.679 | 0.619 | 0.519 | 0.619 | 0.542 | 0.583 | 0.186 | 0.171 | 0.174 | 0.174 | 0.164
SK-MES-1 | 1 | 0.972 | 1.04 | 0.968 | 0.996 | 1.1 | 0.983 | 1.1 | 1.1 | 1.03 | 0.398 | 0.361 | 0.34 | 0.337 | 0.315 | 0.427 | 0.409 | 0.44 | 0.423 | 0.333
SW 1573 | 0.827 | 0.74 | 0.803 | 0.813 | 0.856 | 0.922 | – | 0.674 | 1.07 | 0.671 | 0.525 | 0.364 | 0.462 | 0.521 | 0.511 | 0.516 | 0.362 | 0.445 | 0.538 | 0.516
UMC-11 | 0.611 | 0.537 | 0.568 | 0.607 | 0.507 | 0.372 | 0.482 | 0.41 | 0.398 | 0.534 | 0.829 | 0.591 | 0.903 | 0.63 | 0.883 | 0.462 | 0.449 | – | 0.441 | 0.458
